“Also recorded” adds a separate entry of the source.
Columns and labels:
[1] = test system: HER2+ MAD-MB-453 cell line; assay: cell survival of breast cancer cell line upon treatment with EnnA; assay type: cell-based, human; conditions: MAD-MB-453, 48 and 72 h
Source text: (§1) The first bar indicates 100% folding activity of RRL without inhibitor. PR22 indicates the antibody without PR but with RRL and EnnA. PR represents the antibody (PR22) with PR but without RRL. All other samples have PR22, PR, and RRL without (first bar) or with increased concentration of EnnA. FIGS. 1C-1E are line graphs of cell survival versus EnnA concentration (μM) in breast cancer cell lines Hs578T (FIG. 1C), […] (FIG. 1D) and MDA-MB231 (FIG. 1E) upon treatment with EnnA for 48 and 72 h. […] PR alone (PR), antibody (PR22)+RRL, PR+RRL without inhibitor (RRL), PR+RRL with 1 μM 17-AAG (17AAG) PR+RRL with 10 μM BEAU or EnnA. FIGS. 1G-1I are autoradiographs of Western blots of cytosols from various cell lines treated with 17-AAG (1 μM) or EnnA (3 μM) with antibodies against the specified proteins. FIG. 1J is an autoradiograph showing EnnA causes autophagy in Hs578T and MDA-MB453 cell lines. FIGS. 1K-1N are electron microscopy micrographs showing autophagosomes and reduced mitochondria content in Hs578T cells treated with DMSO or EnnA. FIGS. 1O-1P are fluorescence micrographs showing EnnA causing reduced mitochondria content in Hs578T cells. FIGS. 1Q-1BB are fluorescence micrographs showing mitophagy in Hsp578T cells treated with EnnA as indicated by colocalization of the mitochondria marker Cox4 and the autophagy marker LC3BII.

[2] = test system: Hs578T triple-negative cell line; assay: as above; assay type: cell-based, human; conditions: 48 and 72 h
Source text: as §1

MDA-MB-231 cell line = assay: as above; assay type: cell-based, human; conditions: MDA-MB-231, 48 and 72 h
Source text: as §1

E0771 tumors [3] = assay: E0771 tumor model in immunocompromised nude mice; assay type: in vivo; conditions: 10 mg/kg every other day
Protocol: 50,000 E0771 cells were surgically implanted in mammary fad pad of 10 C57BL/6 immunocompetent mice and 10 immunocompromised nude mice. 12 days after surgery, B6 and nude mice were divided into two groups each. the EnnA group was injected with 10 mg/kg of EnnA every other day, and the control group received a mixture of 15% DMSO and 20% cremophor in PBS.

[4] = test system: murine breast cancer cells; assay: qPCR analysis of mRNA level of cytokines, chemokines, PDL1 and IDO; assay type: cell-based
Protocol: (§2) FIG. 3A-3B are autoradiographs of a Western blot showing expression of the indicated proteins in control (left lane) and 0.5 μM EnnA-treated (right lane) E0771 (FIG. 3A) and AT3 (FIG. 3B) cells. FIG. 3C is a graph showing FACS analysis of PD-L1 level in AT3 cells. FIGS. 3D-3K are graphs showing qPCR analysis of the mRNA level of cytokines TNFa (FIG. 3D), IL-6 (FIG. 3E), TGFb1 (FIG. 3F) and IL-10 (FIG. 3G), the chemokines S100a9 (FIG. 3J) and CCL3 (FIG. 3K), as well as PDL1 (FIG. 3H) and IDO (FIG. 3I). FIGS. 3L-3Q are micrographs of HEK293 cells transiently transfected with GFP-IDO fusion protein expressing or GFP alone plasmids for 24 h. Cells were then treated with 5 μM EnnA for 6 h and analyzed for green fluorescence and bright light. FIG. 3R is a line graph of μg/ml of tryptophan and its IDO-mediated product kynurenine using the previously reported HPLC-based assay.

[5] = test system: Hsp90β on the surface of E0771 and AT3 cells; assay: FACS analysis of Hsp90β expression on the cell surface; assay type: cell-based, murine; conditions: in vitro (E0771, AT3 cell culture) and in vivo (E0771 tumors)
Source text: FIGS. 2I-2K show FACS analysis of Hsp90β expression on the cell surface of E0771 cells treated with DMSO or EnnA. FIGS. 2L-2N show FACS analysis of the ratio of Hsp90α to Hsp90β expression on the cell surface of E0771 cells treated with DMSO or EnnA. FIGS. 2O-2Q show FACS analysis of Hsp90α expression on the cell surface of E0771 cells treated with DMSO or EnnA. FIG. 2R is a bar graph showing expression of Hsp90β on the surface of AT3 cells treated with DMSO or EnnA. FIG. 2S is a bar graph showing expression of Hsp90α on the surface of AT3 cells treated with DMSO or EnnA. FIGS. 2T-2X show FACS analysis of Hsp90β expression on the surface of E0771 tumor cells treated with mIgG, DMSO, or EnnA.

IDO = assay: HPLC-based assay of tryptophan and kynurenine in culture media; assay type: cell-based; conditions: HEK 293 cells expressing IDO-GFP
Protocol: as §2
Western blot analysis (FIG. 3A-3B) confirmed that EnnA destabilizes pAKT and reduces the protein expression of Hsp40 in E0771 and AT3. […] It also reduces the mRNA level of the chemokines S100a9 and CCL3 (FIG. 3J-3K). Importantly, EnnA reduces the mRNA and protein levels of the key immunological checkpoint component PDL-1 (FIG. 3H). Similar results were obtained with EMT6 (not shown). […]

E0771 tumors [6] = assay: E0771 tumor model: EnnA versus 17-AAG and combinations with CPA or anti-CD8; assay type: in vivo, mice
Protocol: Groups of mice (n=10) were implanted with 50,000 E0771 cells. When tumors were about 150 mm3 in volume (10 days post-implantation), mice were injected every other day with DMSO, EnnA (10 mg/Kg) or 17-AAG (10 mg/Kg). Two extra groups were made. In one group, EnnA was combined with one dose (150 mg/Kg) of cyclophosphamide (CPA) on day 14. In the other EnnA was combined with anti-CD8 antibody (250 μg/mouse) injected on day 18 and 22.

E0771 cells = assay: Western blot of control and EnnA-treated cells; assay type: cell-based, murine
Protocol: as §2

AT3 cells = assay: Western blot of control and EnnA-treated cells; assay type: cell-based, murine; conditions: AT3, 0.5 μM EnnA
Protocol: as §2

**Q.** Which results are given for `CC[C@H](C)[C@H]1C(=O)O[C@H](C(C)C)C(=O)N(C)[C@@H]([C@@H](C)CC)C(=O)O[C@H](C(C)C)C(=O)N(C)[C@@H]([C@@H](C)CC)C(=O)O[C@H](C(C)C)C(=O)N1C` [EnnA, Enniatin A]?
**A.** cytotoxicity [1]: potent and concentration-dependent cytotoxicity; cytotoxicity [2]: potent and concentration-dependent cytotoxicity; cytotoxicity (MDA-MB-231 cell line): potent and concentration-dependent cytotoxicity; anti-tumor activity (tumor volume) (E0771 tumors [3]): no significant anti-tumor activity; level of anti-inflammatory IL-10 mRNA [4]: reduces; mRNA expression of IL-6 [4]: significant increase; mRNA expression of TGFβ [4]: significant increase; mRNA expression of TNFα [4]: significant increase; mRNA expression of indolamine 2,3 dioxygenase [4]: highly increased; mRNA level of chemokine CCL3 [4]: reduces; mRNA level of chemokine S100a9 [4]: reduces; mRNA and protein levels of PDL-1 ([4]; Western blot / FACS): reduces; exposure of Hsp90β to the surface of cancer cells [5]: induces exposure; IDO enzymatic activity (tryptophan accumulation, kynurenine reduction in culture media) (IDO): loss of IDO enzymatic activity; breast cancer metastasis to the lungs (E0771 tumors [6]; E0771 tumor bearing mice, H&E lung sections): prevents; tumor outcome (E0771 tumors [6]; EnnA 10 mg/Kg combined with one dose (150 mg/Kg) of cyclophosphamide (CPA) on day 14): completely cured; tumor growth after CD8 T cell depletion (E0771 tumors [6]; EnnA combined with anti-CD8 antibody (250 μg/mouse) on day 18 and 22): restores an aggressive tumor growth; also recorded: rapid regrowth of tumors; time mice remained tumor-free after the end of EnnA treatment (E0771 tumors [6]; EnnA/CPA-treated mice): 2 months; anti-tumor efficacy compared with 17-AAG (E0771 tumors [6]; each 10 mg/Kg every other day): more efficacious than 17-AAG; IDO protein level (E0771 cells; E0771 (FIG. 3A), 0.5 μM EnnA): severely reduced; Hsp70 protein (E0771 cells; E0771, 0.5 μM EnnA): slightly increased; pAKT protein (E0771 cells; E0771, 0.5 μM EnnA): destabilizes; protein expression of Hsp40 (E0771 cells; E0771, 0.5 μM EnnA): reduces; Hsp70 protein (AT3 cells): reduced; pAKT protein (AT3 cells): destabilizes; protein expression of Hsp40 (AT3 cells): reduces
